From patent publication US12398121B2 (Nuvation Bio Inc., priority 2018, dated 2025)
Where two headings read alike, the source gives them in different places.

Experiments:
Human recombinant PARP1 = Human recombinant PARP1 (Homo sapiens, UniProt P09874); experiment: RBC HotSpot PARP1 radioisotope-based filter binding assay; type: biochemical
Procedure: (§1) The following methods are for evaluating the in vitro biology properties of the test articles. • a. RBC HotSpot Poly(ADP-ribose) Polymerases 1 (PARP1) and Poly(ADP-ribose) Polymerases 2 (PARP2) Assays: The assay principle is radioisotope-based filter binding assay where incorporation of radioisotope-labeled NAD^+ into the substrate captured on filter is detected after washout free NAD^+. Data were analyzed using Excel and GraphPad Prism software for IC50 curve fits. Each assay was conducted with PJ34 as a positive control. • i. PARP1 assay: Human recombinant PARP1 at a final concentration of 2.5 nM was combined with histone H4 (20 μM) and test articles at various concentrations in reaction buffer (50 mM Tris-HCL, pH 8.0, 50 mM NaCl, 10 mM MgCl2, 1 mM DTT, 1% DMSO, and 20 μg/mL activated DNA). The solution was inoculated for 20 min at room temperature and the reaction initiated by adding [adenylate-^32P]-Nicotinamide Adenine Dinucleotide, ^32P-NAD^+ at a final concentration of 10 μM. After incubation for 2 hour at room temperature, the reaction mixture was filtered and washed with 0.75% phosphoric acid for radioactivity detection. • ii. PARP2 assay: Human recombinant PARP2 at a final concentration of 2.5 nM was combined with histone H3 (20 μM) and test articles at various concentrations in reaction buffer (50 mM Tris-HCL, pH 8.0, 50 mM NaCl, 10 mM MgCl2, 1 mM DTT, 1% DMSO, and 20 μg/mL activated DNA). The solution was inoculated for 20 min at room temperature and the reaction was initiated by adding [adenylate-^32P]-Nicotinamide Adenine Dinucleotide, ^32P-NAD^+ at a final concentration of 10 μM. After incubation for 2 hour at room temperature, the reaction mixture was filtered and washed with 0.75% phosphoric acid for radioactivity detection. • b. AR binding assay: AR in LNCaP cytosol was used for determining the binding affinity of test articles and the reference compound—progesterone (Sigma, Cat: E2785, St. Louis, MO). IC50s were determined using 8 concentrations/compound. Cytosol was plated at 200 μg/well (100 μL) into a 96-well conical polypropylene plate (Agilent, Cat: 5042-1385, Santa Clara, CA) and mixed with 3 μL of test compound. After adding 100 μL of ^3H-methyltrienolone (PerkinElmer, Cat: NET590250UC, San Jose, CA), the plate was sealed and shaken at 300 rpm at 4° C. for 24 hours. Post incubation, 100 μL of radioligand adsorption buffer containing 10 mM Tris-HCl, pH 7.4; 1.5 mM EDTA; 1 mM DTT; 0.25% charcoal; 0.0025% dextran was added to individual well. Plate was shaken for 15 min at 4′C followed by centrifugation at 3000 rpm for 30 min at 4° C. 150 μL of supernatant was transferred into scint-tube (PerkinElmer, Cat: 6000192) and mixed with 2 mL of Ultima Gold Cocktail (PerkinElmer, Cat: 6013329). Radioactivity was counted using a TriCarb 2910 TR scintillation counter (PerkinElmer). Inhibition of the radioactivity by test articles were calculated using the equation below: % Inhibition=(1−(Assay well−Average_LC)/(Average_HC−Average_LC))×100%.

Human recombinant PARP2 = Human recombinant PARP2 (Homo sapiens, UniProt Q9UGN5); experiment: RBC HotSpot PARP2 radioisotope-based filter binding assay; type: biochemical
Chain of Human recombinant PARP2 (Q9UGN5 whole entry): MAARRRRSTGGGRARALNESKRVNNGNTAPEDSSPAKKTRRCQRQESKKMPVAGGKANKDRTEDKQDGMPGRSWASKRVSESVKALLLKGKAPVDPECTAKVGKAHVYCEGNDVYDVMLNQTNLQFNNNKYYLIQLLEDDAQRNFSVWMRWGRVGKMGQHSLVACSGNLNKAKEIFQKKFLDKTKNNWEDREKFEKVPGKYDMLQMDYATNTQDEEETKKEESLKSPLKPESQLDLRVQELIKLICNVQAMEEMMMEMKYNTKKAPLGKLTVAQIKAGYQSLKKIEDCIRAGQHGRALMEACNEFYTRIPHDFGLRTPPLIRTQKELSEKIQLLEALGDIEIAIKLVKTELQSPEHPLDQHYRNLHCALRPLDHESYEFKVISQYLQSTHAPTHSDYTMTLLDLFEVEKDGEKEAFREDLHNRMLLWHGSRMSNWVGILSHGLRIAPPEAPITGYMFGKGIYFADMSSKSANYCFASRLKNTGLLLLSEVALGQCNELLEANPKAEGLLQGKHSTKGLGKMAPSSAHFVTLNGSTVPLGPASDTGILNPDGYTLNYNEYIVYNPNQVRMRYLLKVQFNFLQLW
Procedure: as §1

[1] = 2.5 nM enzyme, histone H4, 10 μM 32P-NAD+, read-out: PARP1 IC50
[2] = 2.5 nM enzyme, histone H3, 10 μM 32P-NAD+, read-out: PARP2 IC50

Chain of Human recombinant PARP1 (P09874 whole entry): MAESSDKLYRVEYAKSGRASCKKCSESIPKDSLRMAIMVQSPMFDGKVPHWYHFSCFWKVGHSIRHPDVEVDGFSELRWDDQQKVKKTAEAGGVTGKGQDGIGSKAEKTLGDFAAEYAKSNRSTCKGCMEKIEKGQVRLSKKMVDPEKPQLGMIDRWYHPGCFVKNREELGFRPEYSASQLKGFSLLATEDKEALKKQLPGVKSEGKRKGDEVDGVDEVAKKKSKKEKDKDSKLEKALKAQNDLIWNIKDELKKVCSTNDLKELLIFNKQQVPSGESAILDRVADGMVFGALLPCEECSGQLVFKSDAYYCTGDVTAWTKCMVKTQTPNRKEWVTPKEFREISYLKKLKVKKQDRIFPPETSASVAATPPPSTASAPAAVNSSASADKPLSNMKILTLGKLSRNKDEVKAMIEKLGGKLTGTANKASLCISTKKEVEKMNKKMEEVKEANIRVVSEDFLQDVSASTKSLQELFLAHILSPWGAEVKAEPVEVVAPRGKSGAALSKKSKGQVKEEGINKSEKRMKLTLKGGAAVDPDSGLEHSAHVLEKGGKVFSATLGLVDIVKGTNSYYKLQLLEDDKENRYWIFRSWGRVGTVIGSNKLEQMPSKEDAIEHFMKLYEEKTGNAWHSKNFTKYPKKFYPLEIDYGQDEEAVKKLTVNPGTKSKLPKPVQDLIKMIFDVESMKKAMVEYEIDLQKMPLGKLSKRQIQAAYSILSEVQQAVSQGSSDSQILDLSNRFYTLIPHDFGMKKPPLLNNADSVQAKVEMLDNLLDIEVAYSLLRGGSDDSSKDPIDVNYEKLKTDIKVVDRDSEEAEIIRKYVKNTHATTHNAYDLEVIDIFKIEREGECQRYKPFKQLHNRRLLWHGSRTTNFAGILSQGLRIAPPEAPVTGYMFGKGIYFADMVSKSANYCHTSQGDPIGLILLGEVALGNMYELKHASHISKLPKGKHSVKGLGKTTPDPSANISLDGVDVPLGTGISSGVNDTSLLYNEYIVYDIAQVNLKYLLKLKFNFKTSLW

`CN(CCCCCC(=O)N1CCN(C(=O)c2cc(Cc3n[nH]c(=O)c4ccccc34)ccc2F)CC1)CCOc1ccc(C(=O)c2c(-c3ccc(O)cc3)sc3cc(O)ccc23)cc1` [Compound 2.4, 4-(4-fluoro-3-(4-(6-((2-(4-(6-hydroxy-2-(4-hydroxyphenyl)benzo[b]thiophene-3-carbonyl)phenoxy)ethyl)(methyl)amino)hexanoyl)piperazine-1-carbonyl)benzyl)phthalazin-1(2H)-one] was tested, and the IC50 (Human recombinant PARP1; [1]) was 4 nM and the IC50 (Human recombinant PARP2; [2]) was 0.3 nM.

`CCC(=C(c1ccc(O)cc1)c1ccc(OCCN2CCN(C(=O)c3cc(Cc4n[nH]c(=O)c5ccccc45)ccc3F)CC2)cc1)c1ccccc1` [Compound 2.14, 4-(4-fluoro-3-(4-(2-(4-(1-(4-hydroxyphenyl)-2-phenylbut-1-enyl)phenoxy)ethyl)piperazine-1-carbonyl)benzyl)pthalazin-1(2H)-one] was tested, and the IC50 (Human recombinant PARP1; [1]) was 274 nM and the IC50 (Human recombinant PARP2; [2]) was 12.4 nM.

Compound `CC1(C)C(=O)N(c2ccc(C#N)c(C(F)(F)F)c2)C(=S)N1c1ccc(C(=O)NCCCCCC(=O)N2CCN(C(=O)c3cc(Cc4n[nH]c(=O)c5ccccc45)ccc3F)CC2)c(F)c1` [Compound 1.1, 4-(3-(4-cyano-3-(trifluoromethyl)phenyl)-5,5-dimethyl-4-oxo-2-thioxoimidazolidin-1-yl)-2-fluoro-N-(6-(4-(2-fluoro-5-((4-oxo-3,4-dihydrophthalazin-1-yl)methyl)benzoyl)piperazin-1-yl)-6-oxohexyl)benzamide] has an IC50 (Human recombinant PARP1) of 2 nM and an IC50 (Human recombinant PARP2) of 0.2 nM.

Compound `O=C(c1ccc(OCCN2CCN(C(=O)c3cc(Cc4n[nH]c(=O)c5ccccc45)ccc3F)CC2)cc1)c1c(-c2ccc(O)cc2)sc2cc(O)ccc12` [Compound 2.13, 4-(4-fluoro-3-(4-(2-(4-(6-hydroxy-2-(4-hydroxyphenyl)benzo[b]thiophene-3-carbonyl)phenoxy)ethyl)piperazine-1-carbonyl)benzyl)phthalazin-1(2H)-one] has an IC50 (Human recombinant PARP1; [1]) of 3.3 nM and an IC50 (Human recombinant PARP2; [2]) of 0.5 nM.
